From PubChem BioAssay AID179 (DTP/NCI, 2004)
Values joined by “and” are separate entries in the source; they are usually repeats but may differ in a detail not shown here. Equal values may be shown once. Active and inactive are the calls of the source.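 The calls were made as follows: active = compounds giving half or more protection of infected cells from virus-caused growth loss, again on retest; inactive = the rest.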 Where a SMILES comes first, the peptide text is derived from it.

Tested on: CEM cells HIV-1 protection, formazan growth assay
Test: NCI AIDS Antiviral Assay
Conditions: for IC50: measured here: growth of uninfected CEM cells
In short: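 Soluble formazan readout of cell growth; CEM cells ± HIV-1; 5 drug concs. ≥50% protection → retest; ≥50% again = moderately active; reproducible 100% = confirmed active.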

Row | Compound | EC50 [µM] | IC50 | outcome
1 | Cc1c(COC(=O)NC(C)C)c(COC(=O)NC(C)C)c2n1CS(=O)C2 (stereo unspecified) | > 200 | 166 µM | 
2 | CCCCOC(=O)C(=O)/C(=C\n1c(=S)[nH]c2ccccc21)C(=O)C=C(C)C | > 200 |  | 
3 | CNC(=O)OCc1c(COC(=O)NC)c2n(c1C)CSC2 | > 200 | 8.13 µM | 
4 | O=C(O)c1c(CC(Cc2ccc3c(c2)CCC3)C(=O)O)ccc2c1CCC2 (stereo unspecified) | > 200 | 145 µM | 
5 | N#CCCC1(CCC#N)CCCCCCCCC(CCC#N)(CCC#N)C(=O)C1=O | > 200 | > 200 µM | 
6 | O=C1/C(=C\c2ccc([N+](=O)[O-])cc2)Sc2scc(-c3ccc(O)c(O)c3)[n+]21 | > 200 | 5.25 µM | 
7 | CC(=O)c1ccc(C(=O)c2ccccc2C(=O)O)cc1 | > 200 | > 200 µM | 
8 | O=S(=O)(/N=S(/Nc1ccccc1)C(F)(F)Cl)c1ccccc1 (stereo unspecified) | > 200 | > 200 µM | 
9 | CN1C/C(=C\c2ccco2)c2nc(N)nc(-c3ccco3)c2C1 |  |  | inactive
10 | CC1C(=O)C2C1CS2(=O)=O (stereo unspecified) | > 1260 | 1120 µM | 
11 | O=C1NC(=S)N/C1=C\c1ccc(Sc2ccccc2C(=O)O)s1 | > 200 | 110 µM | 
12 | Cc1occc1C(=S)Nc1ccc(Cl)c(C(=O)OCC(F)(F)F)c1 | 0.0195 | 19.1 µM | 
13 | O=C1c2ccccc2CC12Cc1cc3c(cc1C2=O)CCC3 (stereo unspecified) | > 200 | > 200 µM | 
14 | O=C(Nc1ccccc1)C(c1ccccc1)N(Nc1ccccc1Cl)c1ccccc1Cl (stereo unspecified) | > 200 | 33.9 µM | 
15 | OC(CNc1ncccn1)c1ccccc1 (stereo unspecified) | > 200 | > 200 µM | 
16 | CC(=O)C1CC[C@@H](C)[C@@H]2CC[C@@]3(C)OO[C@@]12[C@H](OC=O)O3 (stereo partly specified) | > 200 | 27.5 µM | 
17 | O=C1SC(c2ccccc2)(c2ccccc2)c2ccccc21 | > 4.79 | > 4.79 µM | 
18 | Oc1ccc([I+]c2ccccc2)cc1O | > 107 | 30.2 µM | 
19 | Cn1c(=O)c2c(ncn2Cc2ccc(O)c([N+](=O)[O-])c2)n(C)c1=O | > 200 | > 100 µM | 
20 | Cc1cc(N(CCC#N)CCC#N)ccc1/C(N=Nc1ccc(Cl)cc1)=N\NC(=O)c1ccccc1 | > 200 | 21.4 µM | 
21 | Cc1ccc(-c2cc(-c3ccco3)c(C#N)c(=O)n2C2OC(CO)C(O)C(O)C2O)cc1 (stereo unspecified) | 25.7 | 81.3 µM | 
22 | COc1ccc(-c2n[nH]c3c2CCCc2ccccc2-3)cc1 | > 43.7 | 18.2 µM | 

Row | Compound | EC50 [µM] | IC50 | outcome
23 | CC(=O)N1CN2C(=O)CCC2c2cc(C)ccc21 (stereo unspecified) |  |  | inactive
24 | O=C(NCCc1ccccn1)c1ccc2cc(C(=O)N3CC(CCl)c4ccc([N+](=O)[O-])cc43)[nH]c2c1 (stereo unspecified) | > 200 | 74.1 µM | 
25 | COC(=O)C1OC12CCCCC2 (stereo unspecified) | > 200 | > 200 µM | 
26 | Cc1cc2c(c(C(=O)NCCC(=O)O)c1)Oc1c(cc(C)cc1C(=O)NCCC(=O)O)S2 | > 200 | > 200 µM | 
27 | COC(NC(=O)Nc1ccccc1C)(C(F)(F)F)C(F)(F)F | > 200 | 57.5 µM | 
28 | COC(=O)/C=C/c1c(CC=C(C)C)ncn1C | > 537 | 3.47 µM | 
29 | COc1ccc(S(=O)(=O)NNS(C)(=O)=O)cc1 | > 447 | 87.1 µM | 
30 | COc1ccc(CCNC(=S)N/C=C(\C#N)S(=O)(=O)c2ccc(C)cc2)cc1OC | > 200 | > 200 µM | 
31 | N#Cc1[nH]c(=O)n(-c2ccc([N+](=O)[O-])cc2)c1N | > 200 | > 200 µM | 
32 | CCC(C)C1NC(=O)C2CCCN2C(=O)CNC(=O)C(C)NC(=O)C(Cc2ccccc2)NC(=O)C(C(C)C)NC1=O (stereo unspecified) (cyclo(GPIVFA); configuration not given here) |  |  | inactive
33 | c1ccc([P+](Cc2ccc(C[P+](c3ccccc3)(c3ccccc3)c3ccccc3)s2)(c2ccccc2)c2ccccc2)cc1 | 16.2 | 34.7 µM | 
34 | COc1ccc(N=Nc2ccc3oc(=O)c(C(=O)Nc4ccc(OC)cc4)cc3c2)cc1 | > 200 | 20 µM | 
35 | CCOC(=O)c1sc2nc(SC)nc3c2c1NCN3C | > 200 | > 200 µM | 
36 | CC(=N)N(C)O | > 2000 | > 2000 µM | 
37 | NC(=O)/C(=N\NC(=O)c1cc2ccccc2cc1O)C1C(=O)N(c2ccccc2)N=C1N (stereo unspecified) | > 219 | 13.8 µM | 
38 | COc1cc2oc3ccccc3c(=O)c2cc1CSc1ccccc1N | > 14.5 | 11 µM | 
39 | CCC1(C(=O)OC)CCc2c(OC)ccc(OC)c2C1=O (stereo unspecified) |  |  | inactive
40 | CCOc1cc2c(cc1O)/C(=N\O)C[C@@H]1[C@@H]2CC[C@]2(C)[C@@H](O)CC[C@@H]12 | > 200 | 0.0631 µM | 
41 | COC(=O)/C=C\C1C(C(=O)OC)C2(C(=O)OC)CCC1(C(=O)OC)N2 (stereo unspecified) |  |  | inactive
42 | O=S(=O)(O)CCCNC(CO)(CO)CO | > 200 | > 200 µM | 
43 | COc1ccc(/C=C/C(=O)c2c(OC)cc(OC)c(OC)c2O)cc1 |  |  | inactive
44 | O=c1[nH]c2nccn2c(Cl)c1Br | > 200 | 33.9 µM | 

Row | Compound | EC50 [µM] | IC50 | outcome
45 | Cc1ccc(/C=C2\N=C(N3CCOCC3)NC2=O)cc1 | > 200 | > 200 µM | 
46 | CC(=O)Nc1cc2cc(N)ccc2oc1=O | > 107 | > 107 µM | 
47 | Cc1nn(C(=O)c2ccncc2)c2c1C(c1cccc([N+](=O)[O-])c1)SC(N)=N2 (stereo unspecified) |  |  | inactive
48 | C1=Cc2cccc3occ(c23)C=C1 | > 200 | 28.8 µM | 
49 | CC(C)=CC(=O)c1c(C(=O)O)nc2ccccc2[n+]1[O-] |  |  | inactive
50 | O=C(Cc1nc2ccccc2o1)C(=O)Nc1ccc(Cl)cc1Cl | > 7.76 | > 7.76 µM | 
51 | CCOC(=O)NC(C(F)(F)F)(C(F)(F)F)P(=O)(OCC)OCC | > 200 | 11.5 µM | 
52 | Cc1cc2c(=O)cc(-c3ccc(Cl)cc3Cl)oc2c(C(=O)O)c1C |  |  | inactive
53 | Cn1c(/C=N/NC(=O)c2ccc(C(=O)N/N=C/c3c[n+]4ccccc4n3C)cc2)c[n+]2ccccc12 | 35.5 | 43.7 µM | 
54 | O=C(c1nc2ccc([N+](=O)[O-])cc2[nH]c1=O)C(O)c1ccc([N+](=O)[O-])cc1 (stereo unspecified) | 58.9 | 110 µM | 
55 | Clc1ccc(-c2nnc(-c3nsc4ccccc34)o2)cc1 | > 12 | > 12 µM | 
56 | CN(NC(=O)CCCl)C1=NCCCCN1 | > 200 | > 200 µM | 
57 | C=C(C)CC(C)(c1cc2ccccc2n1C)N1CCOCC1 (stereo unspecified) | > 100 | 64.6 µM | 
58 | O=C(O)c1cc(Cc2cc(C(=O)O)c(O)c3ccccc23)c2ccccc2c1O | > 0.813 | > 0.813 µM | 
59 | Cc1cc(S(=O)(=O)n2cc[nH]c2=O)c(S)cc1Cl | > 200 | > 200 µM | 
60 | COc1ccc(-c2c3ccccc3c(-c3ccc(OCCBr)cc3)c3ccccc23)cc1 | > 100 | > 100 µM | 
61 | Cc1ns/c(=N\C(=S)N(C)C)n1C |  |  | inactive
62 | O=C1c2ccccc2C2(O)N(c3ccccc3)C(=S)N(c3ccccc3)C12O (stereo unspecified) | > 646 | 316 µM | 
63 | COc1ccc(C2SCC(=O)N2NC(=O)c2ccc(NC(C)=O)cc2)c(OC)c1 (stereo unspecified) | > 63.1 | > 63.1 µM | 
64 | C[C@]12CCCC(=O)C1(O)C[C@H](C(=O)O)CC2 (stereo partly specified) |  |  | inactive
65 | CC(C)CN1CC(=O)N2CCCC(C)N2C(=O)C1 (stereo unspecified) | > 200 | > 200 µM | 
66 | C=C(C)COc1cc(NC(=S)OC(C)C)ccc1Cl | 0.813 | 4.79 µM | 

Row | Compound | EC50 [µM] | IC50 | outcome
67 | CC1(CO)COS(=O)OC1 (stereo unspecified) | > 214 | > 214 µM | 
68 | COc1ccc(/C=C/C(=O)c2c(-c3ccccc3)nn(C)c(=O)c2N2CCOCC2)cc1 | > 44.7 | > 44.7 µM | 
69 | CC1(C)O[C@@H](CO)[C@H]([C@@]23OC[C@H]4OC(C)(C)OC4[C@@H]2OC(C)(C)O3)O1 (stereo partly specified) | > 200 | > 200 µM | 
70 | COc1cccc(/C=N/[N-]C(=O)c2ccncc2)c1[O-].[Ni+2].[OH3+] | > 105 | > 105 µM | 
71 | CC(C)(C)CC1=COC(C=O)(CC(C)(C)C)CC1 (stereo unspecified) | > 102 | > 102 µM | 
72 | c1ccc([As](c2ccccc2)c2cccc[c]2[Bi]([c]2ccccc2)[c]2ccccc2)cc1 | > 10.7 | > 10.7 µM | 
73 | COC(=O)c1cc(=O)n(C)c2ccc(OC)cc12 | > 200 | 166 µM | 
74 | COc1ccc(C2N(c3ccc(C)c(N=C=O)c3)C(=O)N3C(c4ccc(OC)cc4)N(c4ccc(C)c(N=C=O)c4)C(=O)N23)cc1 (stereo unspecified) | > 200 | 12.6 µM | 
75 | O=C(NC(CCCCN1C(=O)c2ccccc2C1=O)P(=O)(Oc1ccccc1)Oc1ccccc1)OCc1ccccc1 (stereo unspecified) | > 200 | 95.5 µM | 
76 | CN(C)C(c1ccccc1)C1COC2Cc3ccccc3C1O2 (stereo unspecified) | > 200 | > 200 µM and 151 µM | 
77 | SC1N=C(c2ccccc2)N2C(S)N=C(c3ccccc3)N12 (stereo unspecified) | > 200 | 83.2 µM | 
78 | C[Si](C)(C)C#CC#C[Si](C)(C)C.[C-]#[O+].[C-]#[O+].[C-]#[O+].[C-]#[O+].[C-]#[O+].[C-]#[O+].[C-]#[O+].[C-]#[O+].[C-]#[O+].[C-]#[O+].[C-]#[O+].[C-]#[O+].[Co].[Co].[Co].[Co] | > 1.91 | > 1.91 µM | 
79 | COc1cccc(C=C2N=C(c3ccccc3)N(n3c(-c4ccccc4)nc4ccccc4c3=O)C2=O)c1 | > 200 | 37.2 µM | 
80 | CCOC(=O)CC(=O)Sc1ccccc1 | > 251 | 20.9 µM | 
81 | CN(CN(C)/N=C/c1ccc(Cl)cc1)/N=C/c1ccc(Cl)cc1 |  |  | inactive
82 | C=CCN1C(=O)CC(=O)N(NC2=NNC3(C(=O)N2)c2ccccc2-c2ccccc23)C1=S | > 200 | 79.4 µM | 
83 | O=C1c2ccccc2C2C1N2C(=O)C(F)(F)F (stereo unspecified) | > 148 | 24.5 µM | 
84 | COc1cc2cc(C(=O)N3CC(CCl)c4ccc(N(C)C)cc43)[nH]c2c(OC)c1OC (stereo unspecified) | > 2 | 0.138 µM | 
85 | CC1OC(OC23C(=O)C[C@](C)(O)CC2(O)C=CC2C3=c3oc(-c4ccc(O)cc4)c4c3=C(C(=O)C(C3CC(OC5CCC(OC6CC(O)C(O)C(C)O6)C(C)O5)C(O)C(C)O3)=C4)C2O)CCC1O (stereo partly specified) | > 19.1 | > 19.1 µM | 
86 | CSCCCNC(=O)c1csc(-c2csc(CCNC(=O)CNC(=O)OC(C)(C)C)n2)n1 | > 501 | 234 µM | 
87 | O=C(NC(=O)c1cn(C2OC(CO)C(O)C2O)c(=O)[nH]c1=O)OCc1ccccc1 (stereo unspecified) | > 589 | > 589 µM | 
